The source of these data is patent US9790233B2, “Compositions and methods of modulating 15-PGDH activity” (CASE WESTERN RESERVE UNIVERSITY, priority 2012, dated 2017).

What all share (type): cell-based
Test [1] concerns 15-PGDH luciferase fusion construct in LS174T reporter cell line. The test can be described thus: 15-PGDH-luciferase fusion gene reporter induction, LS174T cells. Conditions: Homo sapiens.
Test [2] has as its system 15-PGDH luciferase fusion construct in Vaco503 reporter cell line. The test can be described thus: 15-PGDH-luciferase fusion gene reporter induction, V503 cells.
The test system of test [3] is 15-PGDH luciferase fusion construct in V9m reporter cell line. The test can be described thus: 15-PGDH-luciferase fusion gene reporter induction, V9m cells.
Where [4] appears, read: read-out: Ls174T-SC1 reporter activity, % ([…]), LS174T reporter cells, […] compound, % induction of luciferase activity over basal level, read-out: Ls174T-SC1 reporter activity, % (2.5 μM).
Setting [5] is: read-out: Ls174T-SC1 reporter activity, % ([…]), LS174T reporter cells, […] compound, % induction of luciferase activity over basal level, read-out: Ls174T-SC1 reporter activity, % (7.5 μM).
The mark [6] stands for this setting: read-out: V503-3H9-7 reporter activity, % ([…]), V503 reporter cells, […] compound, % induction of luciferase activity over basal level, read-out: V503-3H9-7 reporter activity, % (2.5 μM).
Setting [7] is: read-out: V503-3H9-7 reporter activity, % ([…]), V503 reporter cells, […] compound, % induction of luciferase activity over basal level, read-out: V503-3H9-7 reporter activity, % (7.5 μM).
[8] abbreviates: read-out: V9M-SC3 Reporter activity ([…]) (%), V9m reporter cells, […] compound, % induction of luciferase activity over basal level, read-out: V9M-SC3 Reporter activity (2.5 μM) (%).
[9] abbreviates: read-out: V9M-SC3 Reporter activity ([…]), %, V9m reporter cells, […] compound, % induction of luciferase activity over basal level, read-out: V9M-SC3 Reporter activity (7.5 μM), %.
Setting [10] is: read-out: LS174T reporter activity ([…]), […], % induction over basal level, Table 17, read-out: LS174T reporter activity (2.5 μM).
Where [11] appears, read: read-out: lS174T reporter activity ([…]), […], % induction over basal level, Table 17, read-out: lS174T reporter activity (7.5 μM).
Setting [12] is: read-out: V503 reporter activity ([…]), […], % induction over basal level, Table 17, read-out: V503 reporter activity (2.5 μM).
Where [13] appears, read: read-out: V503 reporter activity ([…]), […], % induction over basal level, Table 17, read-out: V503 reporter activity (7.5 μM).
Where [14] appears, read: read-out: V9M reporter activity ([…]), […], % induction of luciferase activity over basal level, Table 17, read-out: V9M reporter activity (2.5 μM).
Where [15] appears, read: read-out: V9M reporter activity ([…]), […], % induction over basal level, Table 17, read-out: V9M reporter activity (7.5 μM).
Setting [16] is: read-out: LS174T reporter activity ([…]), […], % increased luciferase activity over basal level, read-out: LS174T reporter activity (2.5 uM).
[17] abbreviates: read-out: LS174T reporter activity ([…]), […], % increased luciferase activity over basal level, read-out: LS174T reporter activity (7.5 uM).
Where [18] appears, read: read-out: V503 reporter activity ([…]), […], % increased luciferase activity over basal level, read-out: V503 reporter activity (2.5 uM).
The mark [19] stands for this setting: read-out: V503 reporter activity ([…]), […], % increased luciferase activity over basal level, read-out: V503 reporter activity (7.5 uM).
Setting [20] is: read-out: V9M reporter activity ([…]), […], % increased luciferase activity over basal level, 100 = doubling, read-out: V9M reporter activity (2.5 uM).
[21] abbreviates: read-out: V9M reporter activity ([…]), […], % increased luciferase activity over basal level, 100 = doubling, read-out: V9M reporter activity (7.5 uM).

Each structure is given as a SMILES string. Where two headings read alike, the source gives them in different places.

As to `COc1ccc(OC)c(N(C(C)C(=O)Nc2cccnc2)S(=O)(=O)c2ccccc2)c1` (centres unmarked) [SW202991], the activation at […] is -15.6% in test [1] (setting [4]); 2.09% in test [1] (setting [5]); -6.08% in test [2] (setting [6]); 8.9% in test [2] (setting [7]); -25% in test [3] (setting [8]); -7.5% in test [3] (setting [9]).

Consider `COc1ccc(OC)c(N(CC(=O)Nc2cccc(Br)c2)S(=O)(=O)c2ccc(OC)c(OC)c2)c1` [compound 939417], for which the activation at […] in test [1] (setting [10]) was 6.5%; in test [1] (setting [11]), -1.64%; in test [2] (setting [12]), 12.6%; in test [2] (setting [13]), 16.2%; in test [3] (setting [14]), -11.2%; in test [3] (setting [15]) it was -9.81%.

Regarding `COc1ccc(N(CC(=O)Nc2ccc(Br)cc2)S(=O)(=O)c2ccccc2)c(OC)c1` [compound 785161], the activation at […] in test [1] (setting [10]) was 10.7%; in test [1] (setting [11]), -41.9%; in test [2] (setting [12]), 56.7%; in test [2] (setting [13]), -52.5%; in test [3] (setting [14]), 0.54%; in test [3] (setting [15]), 3.48%.

Regarding `O=C(CN(c1ccc(F)cc1)S(=O)(=O)c1ccccc1)Nc1cccnc1` [compound 414177], the activation at […] is 9.51% in test [1] (setting [10]); -0.62% in test [1] (setting [11]); -2.8% in test [2] (setting [12]); -5.73% in test [2] (setting [13]); 10.6% in test [3] (setting [14]); 7.72% in test [3] (setting [15]).

Regarding `COc1ccc(N(CC(=O)Nc2ccccc2Br)S(=O)(=O)c2ccc(C)cc2)c(OC)c1` [compound 771138], the activation at […] in test [1] (setting [10]) was 13.6%; in test [1] (setting [11]) it was 9.23%; in test [2] (setting [12]) it was 34.4%; in test [2] (setting [13]), 72.6%; in test [3] (setting [14]), -4.36%; in test [3] (setting [15]), 6.75%.

`COc1ccc(OC)c(N(CC(=O)Nc2ccccc2Cl)S(=O)(=O)c2ccccc2)c1` [SW202987]: the activation at […] in test [1] (setting [4]) was -8.3%; in test [1] (setting [5]) it was 20.6%; in test [2] (setting [6]) it was 70.1%; in test [2] (setting [7]), 145%; in test [3] (setting [8]), -22%; in test [3] (setting [9]), -21%.

For `COc1ccc(OC)c(N(CC(=O)Nc2cccnn2)S(=O)(=O)c2ccccc2)c1` [SW203680], the activation at […] in test [1] (setting [4]) is 11.7%; in test [1] (setting [5]), 46%; in test [2] (setting [6]), 10.4%; in test [2] (setting [7]) it was 33%; in test [3] (setting [8]), 14%; in test [3] (setting [9]), 25.2%.

Take `CCOc1ccccc1N(CC(=O)Nc1ccccc1Br)S(=O)(=O)c1ccc(C)cc1` [compound 771074]: the activation at […] in test [1] (setting [10]) came to 20.7%; in test [1] (setting [11]), 20.6%; in test [2] (setting [12]) it was 23%; in test [2] (setting [13]), 39.5%; in test [3] (setting [14]), 13.5%; in test [3] (setting [15]), 24.7%.

Turning to `CCCCC[S+]([O-])c1sc2nc(-c3cccs3)cc(-c3ccccc3)c2c1N` (centres unmarked) [SW208080, 2-(pentylsulfinyl)-4-phenyl-6-(thiophen-2-yl)thieno[2,3-b]pyridin-3-amine], the activation at […] in test [1] (setting [16]) came to 118%; in test [1] (setting [17]), 117%; in test [2] (setting [18]), 104%; in test [2] (setting [19]) it was 127%; in test [3] (setting [20]), 102%; in test [3] (setting [21]), 98.7%.

Consider `CCc1ccccc1N(CC(=O)Nc1cccnc1)S(=O)(=O)c1ccccc1` [528580−69−0], for which the activation at […] in test [1] (read-out: Ls174T-SC1 reporter activity, % ([…]), […], Table 18, read-out: Ls174T-SC1 reporter activity, % (2.5 μM)) is 11.5%; in test [1] (read-out: Ls174T-SC1 reporter activity, % ([…]), […], Table 18, read-out: Ls174T-SC1 reporter activity, % (7.5 μM)) it was -4.81%; in test [2] (read-out: V503-3H9-7 reporter activity, % ([…]), […], Table 18, read-out: V503-3H9-7 reporter activity, % (2.5 μM)), 66%; in test [2] (read-out: V503-3H9-7 reporter activity, % ([…]), […], Table 18, read-out: V503-3H9-7 reporter activity, % (7.5 μM)), 110%; in test [3] (read-out: V9M-SC3 Reporter activity ([…]) (%), […], Table 18, read-out: V9M-SC3 Reporter activity (2.5 μM) (%)), 4.71%.

As to `COc1ccc(OC)c(N(CC(=O)Nc2cnccn2)S(=O)(=O)c2ccccc2)c1` [SW203681], the activation at […] in test [1] (setting [4]) is 121%; in test [1] (setting [5]), 152%; in test [2] (setting [6]) it was 90.4%; in test [2] (setting [7]), 72.4%; in test [3] (setting [8]), 18%; in test [3] (setting [9]), 122%.

As to `COc1ccc(OC)c(NC(=O)CN(c2ccccc2)S(=O)(=O)c2cc(Br)ccc2OC)c1` [compound 1002654], the activation at […] was 5.51% in test [1] (setting [10]); -1.24% in test [1] (setting [11]); 0.78% in test [2] (setting [12]); 19.2% in test [2] (setting [13]); -2.58% in test [3] (setting [14]); -3.96% in test [3] (setting [15]).

`O=C(CN(c1ccccn1)S(=O)(=O)c1ccccc1)Nc1ccccc1` [compound 543512]: the activation at […] was 18.1% in test [1] (setting [10]); 8.33% in test [1] (setting [11]); -4.56% in test [2] (setting [12]); -4.26% in test [2] (setting [13]); 36.8% in test [3] (setting [14]); 79.6% in test [3] (setting [15]).

As to `CCCOC(=O)CN(c1cc(OC)ccc1OC)S(=O)(=O)c1ccccc1` [SW202986], the activation at […] in test [1] (setting [4]) was 0.21%; in test [1] (setting [5]), 33.8%; in test [2] (setting [6]), 60.2%; in test [2] (setting [7]), 175%; in test [3] (setting [8]), -22.9%; in test [3] (setting [9]) it was -9.6%.

For the molecule `COc1ccc(OC)c(N(CC(=O)OC2CCCCC2)S(=O)(=O)c2ccccc2)c1` [SW202978], the activation at […] in test [1] (setting [4]) was -10.1%; in test [1] (setting [5]), 20.4%; in test [2] (setting [6]), 46.8%; in test [2] (setting [7]), 116%; in test [3] (setting [8]) it was -13.8%; in test [3] (setting [9]), -0.07%.

`COc1ccc(OC)c(N(CC(=O)Nc2cccnc2C)S(=O)(=O)c2ccccc2)c1` [SW202968]: the activation at […] in test [1] (setting [4]) was -17.5%; in test [1] (setting [5]), 6.08%; in test [2] (setting [6]), 35.2%; in test [2] (setting [7]) it was 53.9%; in test [3] (setting [8]) it was -21.1%; in test [3] (setting [9]), -7.36%.

`COc1ccc(OC)c(N(CC(=O)Nc2cccnc2Cl)S(=O)(=O)c2ccccc2)c1` [SW202973]: the activation at […] in test [1] (setting [4]) is -16.4%; in test [1] (setting [5]), 19.3%; in test [2] (setting [6]), 41.5%; in test [2] (setting [7]), 107%; in test [3] (setting [8]), -15.6%; in test [3] (setting [9]), 5.61%.

For `COc1ccc(OC)c(N(CC(=O)Nc2ccnc(F)c2)S(=O)(=O)c2ccccc2)c1` [SW208005], the activation at […] turned out to be 63.9% in test [1] (setting [4]); 53.9% in test [1] (setting [5]); 103% in test [2] (setting [6]); 61.2% in test [2] (setting [7]); 42.4% in test [3] (setting [8]); 19.8% in test [3] (setting [9]).

As for `COc1ccc(OC)c(N(CC(=O)Nc2cccc(C)c2)S(=O)(=O)c2ccccc2)c1` [SW202969], the activation at […] is -15.9% in test [1] (setting [4]); 17.9% in test [1] (setting [5]); 62.4% in test [2] (setting [6]); 126% in test [2] (setting [7]); -21% in test [3] (setting [8]); -14.3% in test [3] (setting [9]).

For the molecule `CCCCS(=O)(=O)c1sc2nc(-c3cccs3)cc(-c3ccccc3)c2c1N` [SW208078, 2-(butylsulfonyl)-4-phenyl-6-(thiophen-2-yl)thieno[2,3-b]pyridin-3-amine], the activation at […] came out at 72.7% in test [1] (setting [16]); 40% in test [1] (setting [17]); 87.7% in test [2] (setting [18]); 83.8% in test [2] (setting [19]); 36.2% in test [3] (setting [20]); 34.9% in test [3] (setting [21]).
